Laboratory results from ChEMBL document CHEMBL3797194, “Benzimidazolone bioisosteres of potent GluN2B selective NMDA receptor antagonists” (Eur J Med Chem, 2016).

How the values were obtained:
[1] = target: T1, Glutamate receptor ionotropic, NMDA 2B (Homo sapiens, UniProt Q13224); experiment: Displacement of [3H]ifenprodil from recombinant human GluN2B expressed in mouse L(tk-) cell membranes incubated for 120 mins by microbeta scintillation counting analysis
Target sequence in this assay (Q13224 whole entry): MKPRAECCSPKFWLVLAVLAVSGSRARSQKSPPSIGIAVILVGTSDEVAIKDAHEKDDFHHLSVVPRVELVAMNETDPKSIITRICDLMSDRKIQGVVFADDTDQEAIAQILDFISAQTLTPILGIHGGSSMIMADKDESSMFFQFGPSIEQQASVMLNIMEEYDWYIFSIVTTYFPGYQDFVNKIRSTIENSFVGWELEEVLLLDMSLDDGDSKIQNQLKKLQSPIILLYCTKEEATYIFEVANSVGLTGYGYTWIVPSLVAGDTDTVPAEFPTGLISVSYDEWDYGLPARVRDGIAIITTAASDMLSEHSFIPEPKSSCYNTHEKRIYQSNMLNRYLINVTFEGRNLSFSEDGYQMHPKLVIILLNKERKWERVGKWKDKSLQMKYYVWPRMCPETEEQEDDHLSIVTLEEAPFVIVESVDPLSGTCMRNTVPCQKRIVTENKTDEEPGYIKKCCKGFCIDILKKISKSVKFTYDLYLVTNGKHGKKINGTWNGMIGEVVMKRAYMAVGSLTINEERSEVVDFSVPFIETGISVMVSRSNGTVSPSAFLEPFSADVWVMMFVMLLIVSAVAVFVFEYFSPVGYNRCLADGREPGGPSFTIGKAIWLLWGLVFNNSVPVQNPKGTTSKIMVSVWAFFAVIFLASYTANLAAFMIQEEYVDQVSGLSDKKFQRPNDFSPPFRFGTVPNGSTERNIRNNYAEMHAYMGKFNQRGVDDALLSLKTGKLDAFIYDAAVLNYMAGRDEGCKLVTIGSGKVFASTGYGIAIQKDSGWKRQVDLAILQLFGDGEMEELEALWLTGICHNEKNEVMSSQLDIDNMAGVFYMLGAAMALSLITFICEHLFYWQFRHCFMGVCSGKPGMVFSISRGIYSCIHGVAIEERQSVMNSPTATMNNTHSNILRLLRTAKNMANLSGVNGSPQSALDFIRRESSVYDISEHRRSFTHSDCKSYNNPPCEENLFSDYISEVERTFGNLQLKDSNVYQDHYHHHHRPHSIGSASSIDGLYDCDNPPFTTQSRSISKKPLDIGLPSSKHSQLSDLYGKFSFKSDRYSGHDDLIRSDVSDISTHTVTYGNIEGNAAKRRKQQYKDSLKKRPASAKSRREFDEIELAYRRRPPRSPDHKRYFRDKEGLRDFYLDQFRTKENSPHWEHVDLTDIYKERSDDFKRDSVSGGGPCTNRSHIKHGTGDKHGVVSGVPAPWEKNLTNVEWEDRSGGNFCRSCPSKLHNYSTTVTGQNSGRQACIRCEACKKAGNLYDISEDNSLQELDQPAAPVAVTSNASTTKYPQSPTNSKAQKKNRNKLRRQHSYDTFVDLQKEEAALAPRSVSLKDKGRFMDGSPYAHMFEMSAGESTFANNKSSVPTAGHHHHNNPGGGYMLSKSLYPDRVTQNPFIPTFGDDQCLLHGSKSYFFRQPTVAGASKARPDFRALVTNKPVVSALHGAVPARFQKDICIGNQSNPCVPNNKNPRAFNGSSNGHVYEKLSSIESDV

[2] = Displacement of [3H]DTG from sigma2 receptor in rat liver homogenate incubated for 120 mins by solid scintillation counting analysis; format: tissue-based
[3] = target: Sigma non-opioid intracellular receptor 1 (Cavia porcellus, UniProt Q60492); experiment: Displacement of [3H]-(+)-Pentazocine from sigma1 receptor in guinea pig brain homogenate incubated for 120 mins by solid scintillation counting analysis; format: tissue-based
Chain of Sigma non-opioid intracellular receptor 1 (Q60492 whole entry): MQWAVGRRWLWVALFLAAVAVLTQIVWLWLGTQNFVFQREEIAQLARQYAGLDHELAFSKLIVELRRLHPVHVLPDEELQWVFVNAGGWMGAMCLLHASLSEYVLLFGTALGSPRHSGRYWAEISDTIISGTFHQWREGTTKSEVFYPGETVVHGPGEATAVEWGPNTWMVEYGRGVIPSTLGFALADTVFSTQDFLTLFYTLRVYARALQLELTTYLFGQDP

[4] = target: T1, Glutamate receptor ionotropic, NMDA 2B; experiment: Displacement of [3H]ifenprodil from recombinant human GluN2B expressed in mouse L(tk-) cell membranes at 1 uM incubated for 120 mins by microbeta scintillation counting analysis
Target sequence in this assay (Q13224 27-1484 limits assumed): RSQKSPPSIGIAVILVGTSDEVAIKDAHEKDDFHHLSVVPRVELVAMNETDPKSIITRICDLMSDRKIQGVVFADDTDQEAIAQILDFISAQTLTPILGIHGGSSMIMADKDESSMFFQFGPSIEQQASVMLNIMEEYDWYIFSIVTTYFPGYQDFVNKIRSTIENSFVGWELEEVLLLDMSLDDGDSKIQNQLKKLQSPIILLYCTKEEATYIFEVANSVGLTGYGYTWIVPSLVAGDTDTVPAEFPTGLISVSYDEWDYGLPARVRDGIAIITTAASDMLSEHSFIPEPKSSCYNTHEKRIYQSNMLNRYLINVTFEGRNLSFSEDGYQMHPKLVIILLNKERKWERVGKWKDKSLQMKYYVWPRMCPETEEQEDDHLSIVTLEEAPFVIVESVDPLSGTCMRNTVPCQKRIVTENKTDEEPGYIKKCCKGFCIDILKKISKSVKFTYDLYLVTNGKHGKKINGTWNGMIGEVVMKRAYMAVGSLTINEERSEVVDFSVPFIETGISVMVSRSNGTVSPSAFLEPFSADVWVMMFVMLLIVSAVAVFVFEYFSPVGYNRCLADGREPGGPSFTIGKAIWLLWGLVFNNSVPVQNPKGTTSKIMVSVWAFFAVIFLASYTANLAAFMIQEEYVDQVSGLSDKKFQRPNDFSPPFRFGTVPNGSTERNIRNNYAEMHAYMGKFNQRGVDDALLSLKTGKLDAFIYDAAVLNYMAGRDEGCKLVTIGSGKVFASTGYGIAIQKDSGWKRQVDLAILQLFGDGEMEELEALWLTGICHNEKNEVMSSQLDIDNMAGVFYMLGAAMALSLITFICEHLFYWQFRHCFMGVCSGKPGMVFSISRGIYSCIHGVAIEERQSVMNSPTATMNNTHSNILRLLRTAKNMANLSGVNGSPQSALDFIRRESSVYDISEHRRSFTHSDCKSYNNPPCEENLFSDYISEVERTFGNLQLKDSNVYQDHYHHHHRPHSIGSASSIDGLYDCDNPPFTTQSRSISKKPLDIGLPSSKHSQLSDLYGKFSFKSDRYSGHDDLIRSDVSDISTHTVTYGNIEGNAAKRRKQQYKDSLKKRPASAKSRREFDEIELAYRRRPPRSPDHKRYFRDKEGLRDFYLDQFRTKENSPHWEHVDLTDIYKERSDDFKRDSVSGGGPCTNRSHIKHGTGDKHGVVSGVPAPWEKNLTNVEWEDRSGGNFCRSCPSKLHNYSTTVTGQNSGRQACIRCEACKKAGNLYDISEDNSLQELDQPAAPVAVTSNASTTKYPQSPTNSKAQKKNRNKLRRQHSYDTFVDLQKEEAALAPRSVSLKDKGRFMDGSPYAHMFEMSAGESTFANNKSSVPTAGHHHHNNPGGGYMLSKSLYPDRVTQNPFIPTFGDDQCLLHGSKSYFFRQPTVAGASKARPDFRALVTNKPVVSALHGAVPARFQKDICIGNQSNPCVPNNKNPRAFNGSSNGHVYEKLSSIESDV

[5] = target: Sigma non-opioid intracellular receptor 1 (Cavia porcellus) (UniProt Q60492); experiment: Displacement of [3H]-(+)-Pentazocine from sigma1 receptor in guinea pig brain homogenate at 1 uM incubated for 120 mins by solid scintillation counting analysis; format: tissue-based
Chain of Sigma non-opioid intracellular receptor 1 (Cavia porcellus) (Q60492 whole entry): as the sequence (Q60492 whole entry) above

[6] = species: Rattus norvegicus; experiment: Displacement of [3H]DTG from sigma2 receptor in rat liver homogenate at 1 uM incubated for 120 mins by solid scintillation counting analysis; format: tissue-based
[7] = target: T1, Glutamate receptor ionotropic, NMDA 2B; experiment: Binding affinity to GluN2B (unknown origin)
Target sequence in this assay (Q13224 whole entry): as the sequence (Q13224 whole entry) above

| Ki [2] [nM] | inhibition [4] [%] | inhibition [5] [%] | inhibition [6] [%] | Structure (SMILES) | further results |
| --- | --- | --- | --- | --- | --- |
|  | 0 | 19 | 32 | Cn1c(=O)n(C)c2cc3c(cc21)CCC[C@@H](O)[C@@H]3NCCCc1ccccc1 (racemic) |  |
| 57.5 |  |  |  | Cc1ccccc1NC(=N)Nc1ccccc1C [DITOLYLGUANIDINE] |  |

Continued, molecule first:

| Structure (SMILES) | Ki [2] [nM] | inhibition [4] [%] | inhibition [5] [%] | inhibition [6] [%] | further results |
| --- | --- | --- | --- | --- | --- |
| Cn1c(=O)n(C)c2cc3c(cc21)CCCC(NCCCc1ccccc1)C3 (racemic) | 549 |  |  |  | Ki [1]: 697 nM; Ki [3]: 4000 nM |
| Cn1c(=O)n(C)c2cc3c(cc21)CCC[C@@H](O)[C@@H]3O (racemic) |  | 18 | 0 | 18 |  |
| Cn1c(=O)n(C)c2cc3c(cc21)CCC[C@H](O)[C@@H]3O (racemic) |  | 0 | 11 | 5 |  |
| O=c1[nH]c2ccc([S+]([O-])CCN3CCC(Cc4ccc(F)cc4)CC3)cc2o1 (centres undefined) [BESONPRODIL] |  |  |  |  | Ki [7]: 30 nM |
